Data: US9834558B2, “Substituted bridged urea analogs as sirtuin modulators” (GLAXOSMITHKLINE LLC, priority 2013, dated 2017)
Like-named read-outs stand apart in the source and are kept apart here. Values belong to the compound of their own block, whether it stands above or below them.

What was measured:
[1] = molecular target: T1, full-length hSIRT1 wild-type (Homo sapiens, UniProt Q96EB6); assay: SIRT1 activation and inhibition assays (OAcADPr mass spectrometry assay), wild-type enzyme; type: biochemical
T1 construct: Full-length human SIRT1 (hSIRT1) proteins were expressed with a C-terminal His6 tag; His6 (C); made in house
T1 sequence (Q96EB6 1-747): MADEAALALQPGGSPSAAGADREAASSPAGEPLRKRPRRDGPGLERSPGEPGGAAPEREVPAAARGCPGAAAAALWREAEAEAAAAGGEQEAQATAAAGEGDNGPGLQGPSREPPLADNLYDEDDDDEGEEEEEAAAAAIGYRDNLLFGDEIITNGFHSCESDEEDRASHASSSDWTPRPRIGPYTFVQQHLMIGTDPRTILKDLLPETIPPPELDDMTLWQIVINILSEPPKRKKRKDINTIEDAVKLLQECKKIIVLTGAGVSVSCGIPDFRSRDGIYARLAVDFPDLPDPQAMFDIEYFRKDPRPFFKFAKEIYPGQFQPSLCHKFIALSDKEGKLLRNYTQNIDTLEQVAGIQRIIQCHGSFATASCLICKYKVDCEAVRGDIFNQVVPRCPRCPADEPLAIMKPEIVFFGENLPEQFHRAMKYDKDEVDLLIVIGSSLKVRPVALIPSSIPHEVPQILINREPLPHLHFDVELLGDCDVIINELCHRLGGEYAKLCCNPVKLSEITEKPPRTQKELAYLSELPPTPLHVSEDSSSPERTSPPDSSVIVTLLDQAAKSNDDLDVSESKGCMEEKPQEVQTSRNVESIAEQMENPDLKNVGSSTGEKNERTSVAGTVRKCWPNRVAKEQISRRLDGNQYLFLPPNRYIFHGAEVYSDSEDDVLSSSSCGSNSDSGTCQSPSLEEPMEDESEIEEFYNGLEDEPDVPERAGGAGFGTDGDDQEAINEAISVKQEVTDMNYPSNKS

[2] = molecular target: T2, SIRT1 (Homo sapiens, UniProt Q96EB6); assay: Trp mass spectrometry assay of SIRT1 activation; type: biochemical; conditions: for TRP Activity (EC1.5): EC1.5 = concentration that results in 150% activation of SIRT1
T2 sequence (Q96EB6 1-747): T1 sequence (Q96EB6 1-747)
In short: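 N-terminal His-tagged human SIRT1 (10 nM, E. coli BL21(DE3)) with 0.5 μM Ac-RHKK(Ac)W-NH2 peptide and 120 μM βNAD+, 25 min at 25 °C in HEPES pH 7.5, formic acid stop. OAADPR or deacetylated peptide quantified by mass spectrometry; EC1.5 (50% activity increase over control) and Percent Maximum Activation reported.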

[3] = Trp peptide assay, maximum activity relative to control (100%), read-out: TRP MAX RESP (percent maximum fold activation)
[4] = Trp mass spectrometry assay, EC1.5 = concentration of test compound that results in 150% activation of SIRT1
[5] = concentration giving 150% activation of SIRT1, Trp peptide substrate
[6] = Trp mass spectrometry assay, concentration of test compound giving 150% activation of SIRT1

SMILES: Cc1cncc(-c2ccc3c(n2)N(C(=O)Nc2cnccn2)[C@H]2CCN3C2)c1 [(9S)-5-(5-methylpyridin-3-yl)-N-(pyrazin-2-yl)-1,6,8-triazatricyclo[7.2.1.0 {2,7}]dodeca-2(7),3,5-triene-8-carboxamide]
TRP Activity (EC1.5) ([2]; Trp peptide assay): B (B (EC1.5 1-25 μM))
Emax [2, 3]: > 150%

SMILES: Cc1cc(-c2ccc3c(n2)N(C(=O)Nc2cncc(C)n2)[C@H]2CCN3C2)ccn1 [Example 503]
Tryp AVG EC1.5 (μM) [2, 4]: A (A (EC1.5<1 μM))

SMILES: O=C(Nc1cccc(-c2cnco2)c1)N1c2nc(-c3cncc(Cl)c3)ccc2N2CCC1CC2 [Example 575]
Tryp AVG EC1.5 (μM) [2, 4]: A (A (EC1.5<1 μM))

SMILES: O=C(Nc1cccnn1)N1c2nc(-c3cccnc3)ccc2N2CCC[C@H]1C2 [Example 457]
Tryp AVG EC1.5 (μM) [2, 4]: B (B (EC1.5 1-25 μM))
Emax ([2]; Trp mass spectrometry assay, percent maximum fold activation of SIRT1, read-out: Tryp % Fold Act): > 150%

SMILES: COc1cc(NC(=O)N2c3nc(-c4cncc(C(F)(F)F)c4)ccc3N3C[C@@H](O)[C@H]2C3)ncn1 [Example 696]
Tryp AVG EC1.5 (μM) [2, 5]: B (B (EC1.5 1-25 μM))

SMILES: COc1cc(NC(=O)N2c3nc(-c4cccc(CC(O)CO)c4)ccc3N3CC[C@H]2C3)ncn1 (stereo partly drawn) [Example 355]
Tryp AVG EC1.5 (μM) [2, 6]: B (B (EC1.5 1-25 μM))

SMILES: Cc1noc(C)c1-c1ccc2c(n1)N(C(=O)Nc1cnccn1)[C@H]1CCN2C1 [Example 413]
Tryp AVG EC1.5 (μM) [2, 6]: C (C (EC1.5>25 μM))

SMILES: Cc1cc(-c2ccc3c(n2)N(C(=O)Nc2cccc(-c4cnco4)c2)[C@H]2CCN3C2)ccn1 [Example 480]
Tryp AVG EC1.5 (μM) [2, 4]: A (A (EC1.5<1 μM))

SMILES: Cc1cc(-c2ccc3c(n2)N(C(=O)Nc2cncnc2)[C@H]2CCCN3C2)ccn1 [(9S)-5-(2-methylpyridin-4-yl)-N-(pyrimidin-5-yl)-1,6,8-triazatricyclo[7.3.1.0 {2,7}]trideca-2(7),3,5-triene-8-carboxamide]
TRP Activity (EC1.5) ([2]; Trp peptide assay): B (B (EC1.5 1-25 μM))
Emax [2, 3]: > 150%

SMILES: Cc1cnccc1NC(=O)N1c2nc(C3CCCC(C(F)(F)F)C3)ccc2N2CC[C@H]1C2 (stereo partly drawn) [Example 100]
Tryp AVG EC1.5 (μM) ([2]; Trp peptide substrate, concentration giving 150% activation of SIRT1): B (B (EC1.5 1-25 μM))

SMILES: Cc1ccncc1-c1ccc2c(n1)N(C(=O)Nc1cccnn1)[C@H]1CCCN2C1 [Example 520]
Tryp AVG EC1.5 (μM) [2, 4]: C (C (EC1.5>25 μM))

Next, values leading:

RVmax fold shift [1]: 1.00
SMILES: Cc1cnc2c(NC(=O)N3c4nc(-c5cccc(C(F)(F)F)c5)ccc4N4CC[C@H]3C4)cccc2n1 [Example 8]

RVmax fold shift [1]: 1.00
SMILES: O=C(Nc1ccccn1)N1c2nc(-c3cccc(C(F)(F)F)c3)ccc2N2CC[C@H]1C2 [Example 7]

Tryp AVG EC1.5 (μM) [2, 4]: B (B (EC1.5 1-25 μM))
SMILES: O=C(NCCc1cccnc1)N1c2nc(-c3cccc(C(F)(F)F)c3)ccc2N2CC[C@H]1C2 [Example 615]

Tryp AVG EC1.5 (μM) [2, 4]: B (B (EC1.5 1-25 μM))
SMILES: CC1(CCC(=O)NCc2ccc(NC(=O)N3c4nc(-c5cccc(C(F)(F)F)c5)ccc4N4CC[C@H]3C4)cc2)N=N1 [Example 548]

Tryp AVG EC1.5 (μM) [2, 5]: A (A (EC1.5<1 μM))
SMILES: NCc1cccc(NC(=O)N2c3nc(-c4cccc(C(F)(F)F)c4)ccc3N3CCC[C@H]2C3)c1 [Example 757]

Tryp AVG EC1.5 (μM) [2, 5]: A (A (EC1.5<1 μM))
Emax ([2]; percent maximum fold activation of SIRT1, Trp peptide substrate, read-out: Tryp % Fold Act): > 150%
SMILES: O=C(Nc1ccnc(OC[C@H](O)CO)n1)N1c2nc(-c3cccc(C(F)(F)F)c3)ccc2N2CC[C@H]1C2 [Example 818]
